Results reported in article PMC7640924 (Bioorganic & Medicinal Chemistry Letters, 2020).

molecular target: hERG (Homo sapiens, UniProt Q12809); test: hERG inhibition; type: binding; settings: not given
Sequence (Q12809 whole entry): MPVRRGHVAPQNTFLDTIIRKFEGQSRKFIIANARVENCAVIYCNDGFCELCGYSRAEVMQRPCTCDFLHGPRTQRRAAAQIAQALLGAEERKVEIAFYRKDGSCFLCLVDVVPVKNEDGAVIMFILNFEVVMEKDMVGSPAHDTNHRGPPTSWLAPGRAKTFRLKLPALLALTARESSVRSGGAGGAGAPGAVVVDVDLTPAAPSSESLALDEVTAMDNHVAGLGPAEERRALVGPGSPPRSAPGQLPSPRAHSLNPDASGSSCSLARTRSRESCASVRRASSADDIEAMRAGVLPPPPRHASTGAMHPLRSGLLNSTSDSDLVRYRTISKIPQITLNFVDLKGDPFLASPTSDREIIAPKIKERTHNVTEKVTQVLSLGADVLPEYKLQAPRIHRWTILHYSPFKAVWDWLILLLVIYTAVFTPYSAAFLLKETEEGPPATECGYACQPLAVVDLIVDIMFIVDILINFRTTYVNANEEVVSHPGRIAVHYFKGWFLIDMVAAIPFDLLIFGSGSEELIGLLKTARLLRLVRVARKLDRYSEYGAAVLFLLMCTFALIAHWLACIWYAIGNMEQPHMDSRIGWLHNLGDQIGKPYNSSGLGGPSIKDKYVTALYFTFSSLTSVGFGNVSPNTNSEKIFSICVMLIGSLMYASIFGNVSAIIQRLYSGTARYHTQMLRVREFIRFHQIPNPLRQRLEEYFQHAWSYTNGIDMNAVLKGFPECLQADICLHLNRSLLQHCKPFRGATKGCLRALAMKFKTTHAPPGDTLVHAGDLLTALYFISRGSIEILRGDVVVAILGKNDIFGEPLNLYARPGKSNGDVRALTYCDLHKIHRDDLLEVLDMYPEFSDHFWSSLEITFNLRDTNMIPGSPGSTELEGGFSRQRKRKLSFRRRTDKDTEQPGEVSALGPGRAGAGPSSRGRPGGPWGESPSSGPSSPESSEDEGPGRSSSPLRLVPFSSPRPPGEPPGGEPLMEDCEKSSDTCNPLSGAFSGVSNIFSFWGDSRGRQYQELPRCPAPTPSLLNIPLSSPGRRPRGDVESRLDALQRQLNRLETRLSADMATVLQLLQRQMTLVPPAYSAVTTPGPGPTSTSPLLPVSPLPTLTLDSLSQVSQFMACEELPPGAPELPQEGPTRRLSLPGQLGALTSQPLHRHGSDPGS

Structure (SMILES)	hERG binding (in words)
O=C(CN1C(C(=O)c2ccc(F)c(Cl)c2)=C(O)c2ccc(F)cc2S1(=O)=O)Nc1ccc(C(F)(F)F)cc1 [Compound 13c, 2-(3-(3-Chloro-4-fluorobenzoyl)-7-fluoro-4-hydroxy-1,1-dioxido-2H-benzo[e][1,2]thiazin-2-yl)-N-(4-(trifluoromethyl)phenyl)acetamide]	low binding with hERG

tested on: not listed separately; test: Microsomal stability; type: in vitro ADME; settings: human

Structure (SMILES)	microsomal stability (in words)
O=C(CN1C(C(=O)c2ccc(F)c(Cl)c2)=C(O)c2ccc(F)cc2S1(=O)=O)Nc1ccc(C(F)(F)F)cc1 [Compound 13c, 2-(3-(3-Chloro-4-fluorobenzoyl)-7-fluoro-4-hydroxy-1,1-dioxido-2H-benzo[e][1,2]thiazin-2-yl)-N-(4-(trifluoromethyl)phenyl)acetamide]	good microsomal stability

tested on: SARS-CoV-2; test: Anti-SARS-CoV-2 activity, cellular phenotypic screening; type: cell-based; settings: Vero cells

Structure (SMILES)	anti-SARS-CoV-2 activity (in words)
O=C(CN1C(C(=O)c2ccc(F)cc2)=C(O)c2ccccc2S1(=O)=O)Nc1ccccc1 [Compound 4a, 2-(3-(4-fluorobenzoyl)-4-hydroxy-1,1-dioxido-2H-benzo[e][1,2]thiazin-2-yl)-N-phenylacetamide]	no inhibitory effect
O=C(CN1C(C(=O)c2ccc(F)cc2)=C(O)c2ccccc2S1(=O)=O)Nc1ccccc1Cl [Compound 4b, N-(2-Chlorophenyl)-2-(3-(4-fluorobenzoyl)-4-hydroxy-1,1-dioxido-2H-benzo[e][1,2]thiazin-2-yl)acetamide]	no inhibitory effect
CCNC(=O)CN1C(C(=O)c2ccccc2)=C(O)c2ccccc2S1(=O)=O [Compound 4f, 2-(3-Benzoyl-4-hydroxy-1,1-dioxido-2H-benzo[e][1,2]thiazin-2-yl)-N-ethylacetamide]	detrimental for anti-SARS-CoV-2 activities
O=C(C1=C(O)c2ccccc2S(=O)(=O)N1Cc1ccccc1)c1ccccc1 [Compound 5a, (2-Benzyl-4-hydroxy-1,1-dioxido-2H-benzo[e][1,2]thiazin-3-yl)(phenyl)methanone]	no anti-SARS-CoV-2 activities
N#Cc1cccc(C(=O)C2=C(O)c3ccccc3S(=O)(=O)N2CC(=O)c2ccc(F)c(Cl)c2)c1 [Compound 5b, 3-(2-(2-(3-Chloro-4-fluorophenyl)-2-oxoethyl)-4-hydroxy-1,1-dioxido-2H-benzo[e][1,2]thiazine-3-carbonyl)benzonitrile]	no anti-SARS-CoV-2 activities
N#Cc1ccc(C(=O)C2=C(O)c3ccccc3S(=O)(=O)N2CC(=O)c2ccc(F)c(Cl)c2)cc1 [Compound 5c, 4-(2-(2-(3-Chloro-4-fluorophenyl)-2-oxoethyl)-4-hydroxy-1,1-dioxido-2H-benzo[e][1,2]thiazine-3-carbonyl)benzonitrile]	no anti-SARS-CoV-2 activities
O=C(O)/C=C/N1C(C(=O)c2ccc(F)c(Cl)c2)=C(O)c2ccccc2S1(=O)=O [Compound 7, (E)-3-(3-(3-Chloro-4-fluorobenzoyl)-4-hydroxy-1,1-dioxido-2H-benzo[e][1,2]thiazin-2-yl)acrylic acid]	no antiviral effect
